The target in experiment [1] is Mitogen-activated protein kinase kinase kinase 11 (Homo sapiens) (UniProt Q16584). The experiment in a line: Selectivity interaction (Ambit KINOMEscan and KiNATiv profiling in Jurkat cells) EUB0000090b MAP3K11. The following applies: at 1 µM. It is filed as cell-based.
The target of experiment [2] is T1, Serine/threonine-protein kinase Nek3 (Homo sapiens) (UniProt P51956).
T1 sequence (whole entry): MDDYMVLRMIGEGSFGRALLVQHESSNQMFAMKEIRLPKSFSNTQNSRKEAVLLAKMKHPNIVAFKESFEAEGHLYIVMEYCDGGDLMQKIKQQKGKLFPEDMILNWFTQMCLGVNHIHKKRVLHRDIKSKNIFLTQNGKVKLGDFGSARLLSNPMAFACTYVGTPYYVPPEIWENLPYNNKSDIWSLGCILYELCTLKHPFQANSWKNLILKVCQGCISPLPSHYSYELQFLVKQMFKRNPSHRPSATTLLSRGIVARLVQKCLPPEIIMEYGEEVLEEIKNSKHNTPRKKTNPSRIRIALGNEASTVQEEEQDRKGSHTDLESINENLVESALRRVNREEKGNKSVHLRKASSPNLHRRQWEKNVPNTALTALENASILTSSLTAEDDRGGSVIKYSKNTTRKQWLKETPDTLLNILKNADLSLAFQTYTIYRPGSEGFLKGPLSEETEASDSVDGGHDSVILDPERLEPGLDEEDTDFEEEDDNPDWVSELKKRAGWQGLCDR
Put plainly: Selectivity interaction (Ambit KINOMEscan and KiNATiv profiling in Jurkat cells) EUB0000090b NEK3. In kind it is cell-based. The following applies: at 1 µM.

Experiment [3] addresses T2, Phosphatidylinositol 3-kinase C2 domain-containing subunit gamma (Homo sapiens) (UniProt O75747).
T2 sequence (whole entry): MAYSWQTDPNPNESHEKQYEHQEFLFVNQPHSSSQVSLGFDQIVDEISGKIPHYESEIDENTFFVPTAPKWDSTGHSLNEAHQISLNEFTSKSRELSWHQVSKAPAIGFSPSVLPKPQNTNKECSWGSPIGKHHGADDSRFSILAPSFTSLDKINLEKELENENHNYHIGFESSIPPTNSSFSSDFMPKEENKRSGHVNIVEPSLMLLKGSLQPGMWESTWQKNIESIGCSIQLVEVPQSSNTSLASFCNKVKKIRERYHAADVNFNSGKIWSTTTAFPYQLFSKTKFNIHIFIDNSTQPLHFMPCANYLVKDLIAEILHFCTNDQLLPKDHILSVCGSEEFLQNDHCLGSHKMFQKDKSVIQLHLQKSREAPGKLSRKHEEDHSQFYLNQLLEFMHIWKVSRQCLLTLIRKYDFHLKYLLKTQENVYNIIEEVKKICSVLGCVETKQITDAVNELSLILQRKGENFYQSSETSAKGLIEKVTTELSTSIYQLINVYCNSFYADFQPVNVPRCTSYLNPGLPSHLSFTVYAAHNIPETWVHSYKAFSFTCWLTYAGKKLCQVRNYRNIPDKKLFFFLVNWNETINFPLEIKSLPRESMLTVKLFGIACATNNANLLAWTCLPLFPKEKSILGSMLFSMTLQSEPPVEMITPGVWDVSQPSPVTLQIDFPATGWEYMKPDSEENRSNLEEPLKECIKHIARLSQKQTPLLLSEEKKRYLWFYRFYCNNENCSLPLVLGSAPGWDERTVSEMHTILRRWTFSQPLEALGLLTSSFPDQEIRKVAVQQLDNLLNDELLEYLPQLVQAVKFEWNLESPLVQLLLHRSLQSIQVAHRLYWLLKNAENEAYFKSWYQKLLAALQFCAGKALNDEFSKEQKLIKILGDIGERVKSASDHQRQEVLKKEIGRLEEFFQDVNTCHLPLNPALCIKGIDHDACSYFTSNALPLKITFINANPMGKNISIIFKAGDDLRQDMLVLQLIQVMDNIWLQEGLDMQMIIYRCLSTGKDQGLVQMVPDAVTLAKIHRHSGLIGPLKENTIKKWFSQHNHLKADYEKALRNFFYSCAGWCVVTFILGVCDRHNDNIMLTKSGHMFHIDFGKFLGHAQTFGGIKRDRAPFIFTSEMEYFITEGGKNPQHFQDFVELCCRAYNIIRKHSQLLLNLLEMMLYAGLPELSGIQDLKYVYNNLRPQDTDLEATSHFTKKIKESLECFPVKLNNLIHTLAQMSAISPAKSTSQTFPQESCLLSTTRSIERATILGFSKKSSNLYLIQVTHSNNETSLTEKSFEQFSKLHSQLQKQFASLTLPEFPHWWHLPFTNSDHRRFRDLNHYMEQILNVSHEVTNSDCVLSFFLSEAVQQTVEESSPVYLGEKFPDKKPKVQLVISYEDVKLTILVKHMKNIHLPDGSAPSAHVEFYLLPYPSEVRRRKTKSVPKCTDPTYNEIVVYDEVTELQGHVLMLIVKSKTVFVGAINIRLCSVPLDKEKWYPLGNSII
The experiment in a line: Selectivity interaction (KinomeScan (DiscoverX)) EUB0001079a PIK3C2G. The following applies: at 1 µM.

Experiment [4] addresses Receptor tyrosine-protein kinase erbB-3 (Homo sapiens) (UniProt P21860). The experiment in a line: Selectivity interaction (KinomeScan (DiscoverX)) EUB0000045b ERBB3.
In experiment [5] the target is Tyrosine-protein kinase JAK2 (Homo sapiens, UniProt O60674). Put plainly: Selectivity interaction (Kinase panel (Invitrogen)) EUB0000639a JAK2. The following applies: at 200 nM.
Chain of Tyrosine-protein kinase JAK2 (O60674 whole entry): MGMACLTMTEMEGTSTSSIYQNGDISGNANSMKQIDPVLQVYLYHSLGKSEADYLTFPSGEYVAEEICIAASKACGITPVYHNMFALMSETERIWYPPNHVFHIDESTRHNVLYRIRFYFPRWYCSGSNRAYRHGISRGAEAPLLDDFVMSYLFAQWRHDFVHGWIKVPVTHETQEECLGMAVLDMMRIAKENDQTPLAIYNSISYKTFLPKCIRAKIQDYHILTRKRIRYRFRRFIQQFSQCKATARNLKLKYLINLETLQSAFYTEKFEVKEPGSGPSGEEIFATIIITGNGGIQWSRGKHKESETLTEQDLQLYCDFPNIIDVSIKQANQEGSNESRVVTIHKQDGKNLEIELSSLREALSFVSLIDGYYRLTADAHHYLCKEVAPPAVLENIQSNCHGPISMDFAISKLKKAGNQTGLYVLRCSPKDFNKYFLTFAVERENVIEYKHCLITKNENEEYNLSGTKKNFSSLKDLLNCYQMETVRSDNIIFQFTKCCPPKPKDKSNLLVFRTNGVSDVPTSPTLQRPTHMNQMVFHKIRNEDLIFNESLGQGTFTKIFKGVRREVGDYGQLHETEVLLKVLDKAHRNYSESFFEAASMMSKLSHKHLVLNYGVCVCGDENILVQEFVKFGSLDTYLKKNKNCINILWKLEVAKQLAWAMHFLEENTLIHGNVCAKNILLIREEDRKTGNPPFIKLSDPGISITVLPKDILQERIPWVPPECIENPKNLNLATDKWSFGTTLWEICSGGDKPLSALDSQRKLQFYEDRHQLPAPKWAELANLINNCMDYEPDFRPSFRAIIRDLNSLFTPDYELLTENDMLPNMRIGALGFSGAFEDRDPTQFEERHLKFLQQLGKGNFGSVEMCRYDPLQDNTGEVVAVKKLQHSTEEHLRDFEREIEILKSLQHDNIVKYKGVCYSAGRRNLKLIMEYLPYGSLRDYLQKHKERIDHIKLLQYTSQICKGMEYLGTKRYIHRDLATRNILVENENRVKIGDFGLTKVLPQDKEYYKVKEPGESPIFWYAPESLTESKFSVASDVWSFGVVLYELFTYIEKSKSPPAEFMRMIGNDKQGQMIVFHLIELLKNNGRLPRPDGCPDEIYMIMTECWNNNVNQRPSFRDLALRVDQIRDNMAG
The target of experiment [6] is Serine/threonine-protein kinase 38 (Homo sapiens) (UniProt Q15208). The experiment in a line: Selectivity interaction (ActivX KiNativ screen (kinase selectivity in THP-1 cell lysates)) EUB0000639a STK38. The following applies: lysate, at 0.01 µM. It is filed as subcellular.
Chain of Serine/threonine-protein kinase 38 (Homo sapiens) (Q15208 2-465 limits assumed): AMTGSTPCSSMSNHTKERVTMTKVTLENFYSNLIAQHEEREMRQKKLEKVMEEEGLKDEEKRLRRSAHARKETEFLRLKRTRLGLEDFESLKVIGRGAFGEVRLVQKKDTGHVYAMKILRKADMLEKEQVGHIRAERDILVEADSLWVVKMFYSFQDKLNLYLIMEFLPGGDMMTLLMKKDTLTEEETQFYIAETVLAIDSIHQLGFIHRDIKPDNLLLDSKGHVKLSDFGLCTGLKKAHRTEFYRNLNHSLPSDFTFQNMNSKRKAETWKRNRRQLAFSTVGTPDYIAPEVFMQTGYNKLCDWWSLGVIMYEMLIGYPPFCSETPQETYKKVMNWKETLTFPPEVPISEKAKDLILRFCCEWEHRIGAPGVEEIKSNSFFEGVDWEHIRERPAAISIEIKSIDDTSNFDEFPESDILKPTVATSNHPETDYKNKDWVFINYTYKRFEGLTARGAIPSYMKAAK
For experiment [7], the target named is T3, Rhodopsin kinase GRK1 (Homo sapiens) (UniProt Q15835).
T3 sequence (whole entry): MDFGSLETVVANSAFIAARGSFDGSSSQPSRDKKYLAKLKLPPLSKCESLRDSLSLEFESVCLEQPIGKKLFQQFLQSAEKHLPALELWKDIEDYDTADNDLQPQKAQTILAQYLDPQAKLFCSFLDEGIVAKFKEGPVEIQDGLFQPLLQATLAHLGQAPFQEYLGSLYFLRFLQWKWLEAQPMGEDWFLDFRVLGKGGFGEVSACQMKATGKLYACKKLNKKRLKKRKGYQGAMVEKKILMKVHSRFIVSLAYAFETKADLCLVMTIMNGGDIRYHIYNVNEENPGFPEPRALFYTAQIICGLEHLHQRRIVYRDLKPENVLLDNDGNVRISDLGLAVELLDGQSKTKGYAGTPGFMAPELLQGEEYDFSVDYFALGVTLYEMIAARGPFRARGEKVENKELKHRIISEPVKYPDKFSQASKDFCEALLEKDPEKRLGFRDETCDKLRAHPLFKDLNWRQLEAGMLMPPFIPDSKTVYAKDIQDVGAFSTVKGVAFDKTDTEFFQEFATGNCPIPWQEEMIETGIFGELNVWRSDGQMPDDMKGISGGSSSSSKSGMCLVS
Put plainly: Selectivity interaction (KinomeScan (DiscoverX)) EUB0000229b GRK1. The following applies: at 10 µM.

Experiment [8] has as its target RAC-gamma serine/threonine-protein kinase (Homo sapiens, UniProt Q9Y243). The experiment in a line: Selectivity interaction (KinomeScan (DiscoverX)) EUB0000618a AKT3. The following applies: at 10 µM.

Chain of Receptor tyrosine-protein kinase erbB-3 (Homo sapiens) (P21860 whole entry): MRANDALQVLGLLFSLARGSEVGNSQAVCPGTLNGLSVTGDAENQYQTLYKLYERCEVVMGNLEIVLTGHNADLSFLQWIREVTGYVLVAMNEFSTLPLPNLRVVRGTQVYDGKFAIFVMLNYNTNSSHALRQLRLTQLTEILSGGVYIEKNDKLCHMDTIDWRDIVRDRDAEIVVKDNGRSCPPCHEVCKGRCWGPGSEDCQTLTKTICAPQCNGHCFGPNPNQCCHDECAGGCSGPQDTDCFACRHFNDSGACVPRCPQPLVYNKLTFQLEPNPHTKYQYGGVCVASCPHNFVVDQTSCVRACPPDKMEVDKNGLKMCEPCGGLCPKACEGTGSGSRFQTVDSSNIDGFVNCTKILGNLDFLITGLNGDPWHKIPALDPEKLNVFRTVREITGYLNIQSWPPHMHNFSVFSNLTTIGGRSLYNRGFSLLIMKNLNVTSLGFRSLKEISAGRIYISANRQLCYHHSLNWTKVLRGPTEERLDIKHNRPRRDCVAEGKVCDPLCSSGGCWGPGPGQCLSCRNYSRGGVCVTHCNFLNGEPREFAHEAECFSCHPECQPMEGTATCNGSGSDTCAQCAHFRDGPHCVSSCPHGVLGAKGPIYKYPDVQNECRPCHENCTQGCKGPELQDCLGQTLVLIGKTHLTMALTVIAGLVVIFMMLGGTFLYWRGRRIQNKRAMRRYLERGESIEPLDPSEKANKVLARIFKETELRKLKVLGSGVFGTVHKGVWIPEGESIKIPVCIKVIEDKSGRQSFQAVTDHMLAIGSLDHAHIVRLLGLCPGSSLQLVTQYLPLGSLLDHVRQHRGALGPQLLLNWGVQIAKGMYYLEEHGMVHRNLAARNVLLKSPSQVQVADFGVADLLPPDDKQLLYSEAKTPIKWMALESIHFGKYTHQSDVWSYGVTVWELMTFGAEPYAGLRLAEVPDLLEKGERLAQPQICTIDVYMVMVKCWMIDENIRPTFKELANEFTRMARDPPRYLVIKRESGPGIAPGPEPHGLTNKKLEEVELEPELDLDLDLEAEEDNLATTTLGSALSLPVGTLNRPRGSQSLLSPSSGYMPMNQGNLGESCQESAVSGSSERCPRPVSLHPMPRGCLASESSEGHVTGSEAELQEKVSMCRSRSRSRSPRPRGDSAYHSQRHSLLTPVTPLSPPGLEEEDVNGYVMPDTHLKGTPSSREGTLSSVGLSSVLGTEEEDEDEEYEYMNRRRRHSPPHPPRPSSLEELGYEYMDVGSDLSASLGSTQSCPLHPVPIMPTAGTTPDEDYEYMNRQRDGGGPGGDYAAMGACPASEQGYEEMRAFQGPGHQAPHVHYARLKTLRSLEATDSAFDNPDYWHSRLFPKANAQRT
Chain of RAC-gamma serine/threonine-protein kinase (Q9Y243 whole entry): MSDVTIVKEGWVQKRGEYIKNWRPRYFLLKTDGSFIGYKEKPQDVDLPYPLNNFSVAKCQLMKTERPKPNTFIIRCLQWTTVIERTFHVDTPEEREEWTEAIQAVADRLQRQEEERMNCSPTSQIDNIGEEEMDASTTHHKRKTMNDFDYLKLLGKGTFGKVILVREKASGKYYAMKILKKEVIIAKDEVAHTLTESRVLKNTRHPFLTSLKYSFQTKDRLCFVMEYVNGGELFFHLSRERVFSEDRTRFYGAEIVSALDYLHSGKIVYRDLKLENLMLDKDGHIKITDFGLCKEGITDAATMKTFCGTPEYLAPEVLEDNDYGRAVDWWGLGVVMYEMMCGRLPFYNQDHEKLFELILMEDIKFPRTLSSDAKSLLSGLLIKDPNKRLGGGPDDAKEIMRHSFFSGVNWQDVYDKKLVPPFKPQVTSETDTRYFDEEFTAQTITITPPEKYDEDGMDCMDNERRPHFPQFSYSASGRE
Chain of Mitogen-activated protein kinase kinase kinase 11 (Homo sapiens) (Q16584 whole entry, looked up): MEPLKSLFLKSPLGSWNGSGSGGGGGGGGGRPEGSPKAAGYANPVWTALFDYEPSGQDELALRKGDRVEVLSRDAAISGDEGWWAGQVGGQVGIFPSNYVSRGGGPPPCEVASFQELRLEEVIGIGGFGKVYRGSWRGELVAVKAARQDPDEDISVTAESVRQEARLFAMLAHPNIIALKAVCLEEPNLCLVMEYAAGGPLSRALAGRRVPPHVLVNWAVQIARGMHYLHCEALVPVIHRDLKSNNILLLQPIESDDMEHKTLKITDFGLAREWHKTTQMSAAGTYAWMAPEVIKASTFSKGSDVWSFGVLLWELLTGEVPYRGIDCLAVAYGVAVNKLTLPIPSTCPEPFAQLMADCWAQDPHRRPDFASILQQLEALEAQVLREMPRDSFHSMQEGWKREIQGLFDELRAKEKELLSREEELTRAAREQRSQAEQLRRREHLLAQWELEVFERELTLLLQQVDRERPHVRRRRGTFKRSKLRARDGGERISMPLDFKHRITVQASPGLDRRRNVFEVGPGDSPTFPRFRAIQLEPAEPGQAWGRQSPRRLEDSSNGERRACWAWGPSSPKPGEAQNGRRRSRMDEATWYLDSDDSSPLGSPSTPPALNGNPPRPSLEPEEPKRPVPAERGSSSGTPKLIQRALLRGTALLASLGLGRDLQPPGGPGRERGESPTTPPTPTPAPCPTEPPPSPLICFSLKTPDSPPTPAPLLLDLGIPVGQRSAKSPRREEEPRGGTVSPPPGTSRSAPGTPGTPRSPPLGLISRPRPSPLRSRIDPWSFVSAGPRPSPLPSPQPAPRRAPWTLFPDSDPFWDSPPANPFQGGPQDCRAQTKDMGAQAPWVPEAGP

On to `CN(C)C/C=C/C(=O)Nc1ccc(C(=O)N2CCCC(Nc3ncc(Cl)c(-c4c[nH]c5ccccc45)n3)C2)cc1` (centres undefined), for which the values for the % of control in experiment [1] and in experiment [2] were 84% and 88%, respectively.
In experiment [3], `Nc1cnc(N2CCc3cc(S(=O)(=O)Nc4c(F)cc(Cl)cc4F)cc(N4CCCC4=O)c32)nc1` [TP-020n] came in with a % of control of 78%.
Regarding `C=CC(=O)Nc1cc(-n2c(=O)ccc3cnc4ccc(-c5ccc(NS(C)(=O)=O)cc5)cc4c32)ccc1C`, the % of control in experiment [4] (at 1 µM) and in experiment [4] (at 10 µM) was 100% each time.
Regarding `CC[C@@H]1[C@H](F)C(=O)N[C@@H]1COc1nccc2cc(C(N)=O)c(OC)cc12` [ZIMLOVISERTIB], the results for the % of inhibition in experiment [5] and in experiment [6] were 15.4% and 1.5%, respectively.
On to `COc1cc(N(C)c2ccnc3ccc(C(F)(F)F)cc23)cc(OC)c1OC`, for which the % binding in experiment [7] turned out to be 68%.
On to `O[C@H]1CC[C@H](Nc2ncc3nc(Nc4c(F)cc(F)cc4F)n([C@H]4CCOC4)c3n2)CC1`, for which, in experiment [8], the % of control is 100%.

The values above are taken from ChEMBL document CHEMBL5465560, “Selectivity Literature for EUbOPEN Chemogenomic Library” (2024).
